One experiment has as its system A549. The experiment can be described thus: The compound was evaluated for antiproliferative activity against A549 cell line. Type of experiment: functional. Particulars: Homo sapiens, read-out: ED50 (the source's name).
In another experiment the test system is L1210. Kind of experiment: The compound was evaluated for antiproliferative activity against L1210 cell line. The format is functional. Particulars: Mus musculus, read-out: ED50 (the source's name).
The species entered for another experiment is Mus musculus. The experiment can be described thus: Survival ratio (SR) is the number of mice surviving after 80 days among 8 mice. The format is functional.
In another experiment the test system is CCRF S-180. Kind of experiment: Percent ratio of treated to control mice after intraperitoneal injection of 1x10E7 S180 cells for antitumor activity was determined. The format is functional, Mus musculus.

SMILES strings stand for the structures. In brackets after ≈: the same amount, converted by molar mass.

Usually T/C stands for the result in the treated group divided by that in the control group, in per cent.

In the case of `CCCO/N=C/c1cc(OC)c2c(c1OC)C(=O)C=CC2=O`, the EC50 is greater than 10 µg/mL in the experiment on A549 and 0.107 µg/mL (≈ 0.353 µM) in the experiment on L1210. Also, the Survival ratio in the experiment listed under Mus musculus is on record as 2. Also, the T/C in the experiment on CCRF S-180 stood at 229%.

For `CCCCCCCCCCCCO/N=C/c1cc(OC)c2c(c1OC)C(=O)C=CC2=O`, the values for the EC50 in the experiment on A549 and in the experiment on L1210 were greater than 10 µg/mL and 0.311 µg/mL (≈ 0.724 µM), respectively. In addition, the Survival ratio in the experiment listed under Mus musculus amounted to 0. The T/C in the experiment with CCRF S-180 is on record as 119%.

As for `CCCCCCCO/N=C/c1cc(OC)c2c(c1OC)C(=O)C=CC2=O`, the EC50 is greater than 10 µg/mL in the experiment with A549 and 0.213 µg/mL (≈ 0.593 µM) in the experiment on L1210. Besides, the Survival ratio in the experiment listed under Mus musculus is 5. Also, the T/C with CCRF S-180 worked out at 355%.

On to `CCCCCC/C(=N\OCCCCC)c1cc(OC)c2c(c1OC)C(=O)C=CC2=O`, for which the values for the EC50 in the experiment with A549 and in the experiment on L1210 were greater than 10 µg/mL and 0.224 µg/mL (≈ 0.539 µM), respectively. Further, the Survival ratio in the experiment filed under Mus musculus is 5. Besides, the T/C in the experiment on CCRF S-180 was determined as 363%.

Consider `CCCCCCCO/N=C(\CCCCCC)c1cc(OC)c2c(c1OC)C(=O)C=CC2=O`, for which the EC50 with A549 was greater than 10 µg/mL; in the experiment with L1210, 0.162 µg/mL (≈ 0.365 µM). In the experiment listed under Mus musculus, the Survival ratio is listed as 5. For the same compound, the T/C in the experiment with CCRF S-180 worked out at 375%.

With `CCCCCCCCCO/N=C(\CCCCCC)c1cc(OC)c2c(c1OC)C(=O)C=CC2=O`, the EC50 with A549 was greater than 10 µg/mL; in the experiment on L1210, 1.15 µg/mL (≈ 2.43 µM). Also, in the experiment filed under Mus musculus, the Survival ratio is listed as 0. Moreover, in the experiment with CCRF S-180, the T/C came to 96%.

For `CCCCCCCCCO/N=C/c1cc(OC)c2c(c1OC)C(=O)C=CC2=O`, the EC50 was greater than 10 µg/mL in the experiment on A549 and 0.19 µg/mL (≈ 0.49 µM) in the experiment on L1210. Also, the Survival ratio in the experiment filed under Mus musculus was found to be 5. For the same compound, the T/C with CCRF S-180 is listed as 355%.

For `CO/N=C/c1cc(OC)c2c(c1OC)C(=O)C=CC2=O`, the results for the EC50 in the experiment on A549 and in the experiment on L1210 were greater than 10 µg/mL and 0.109 µg/mL (≈ 0.396 µM), respectively. Further, the Survival ratio in the experiment listed under Mus musculus was 2. The T/C in the experiment on CCRF S-180 is reported as 318%.

As for `CCCCCO/N=C/c1cc(OC)c2c(c1OC)C(=O)C=CC2=O`, the EC50 is greater than 10 µg/mL in the experiment with A549 and 0.175 µg/mL (≈ 0.528 µM) with L1210. Also, in the experiment listed under Mus musculus, the Survival ratio is 5. For the same compound, the T/C with CCRF S-180 is reported as 388%.

For `CCCCCC/C(=N\OC)c1cc(OC)c2c(c1OC)C(=O)C=CC2=O`, the EC50 in the experiment on A549 was greater than 10 µg/mL; in the experiment on L1210, 0.192 µg/mL (≈ 0.534 µM). Moreover, the Survival ratio in the experiment listed under Mus musculus stood at 5. For the same compound, the T/C in the experiment with CCRF S-180 was determined as 323%.

As to `CCCCCC/C(=N\OCCC)c1cc(OC)c2c(c1OC)C(=O)C=CC2=O`, the EC50 in the experiment with A549 is greater than 10 µg/mL; in the experiment on L1210, 0.166 µg/mL (≈ 0.428 µM). Moreover, the Survival ratio in the experiment listed under Mus musculus was 5. Moreover, the T/C in the experiment with CCRF S-180 is 369%.

With `CCCCCCCCCCCCO/N=C(\CCCCCC)c1cc(OC)c2c(c1OC)C(=O)C=CC2=O`, the EC50 was greater than 10 µg/mL in the experiment on A549 and 0.193 µg/mL (≈ 0.376 µM) with L1210. In the experiment filed under Mus musculus, the Survival ratio stood at 2. Further, the T/C with CCRF S-180 is recorded as 231%.

For the compound `COc1cc(/C=N/OCc2ccccc2)c(OC)c2c1C(=O)C=CC2=O`, the EC50 was greater than 10 µg/mL in the experiment with A549 and 0.264 µg/mL (≈ 0.751 µM) with L1210. The Survival ratio in the experiment listed under Mus musculus is given as 4. In addition, the T/C in the experiment with CCRF S-180 was 331%.

Regarding `COc1cccc2c1C(=O)c1c(O)c3c(c(O)c1C2=O)C[C@@](O)(C(=O)CO)C[C@@H]3O[C@H]1C[C@H](N)[C@H](O)[C@H](C)O1` [DOXORUBICIN], the EC50 came to 1.01 µg/mL (≈ 1.86 µM) with A549 and 0.016 µg/mL (≈ 0.0294 µM) with L1210. Further, the Survival ratio in the experiment filed under Mus musculus is 3. In addition, in the experiment on CCRF S-180, the T/C is 315%.

The values are drawn from ChEMBL document CHEMBL1132776, “(E) -6-(1-alkyloxyiminoalkyl)-5,8-dimethoxy-1,4-naphthoquinones: synthesis, cytotoxic activity and antitumor activity” (2000).
